Measurements as given in BindingDB's records for PubMed 37567057 (Institute of Organic Chemistry and Biochemistry of the …).

Tests used:
[1] = target: T1, Stimulator of interferon genes protein (Homo sapiens, UniProt Q86WV6); assay: Agonist activity at STING G230A/R293Q mutant (unknown origin) expressed in digitonin -permeabilized HEK293T cells preincubated for 30 mins followed by washout and measured after 5 hrs by Bright-glo luciferase assay
[2] = target: T1, Stimulator of interferon genes protein; assay: Agonist activity at STING R71H/G230A/R293Q mutant (unknown origin) expressed in digitonin -permeabilized HEK293T cells preincubated for 30 mins followed by washout and measured after 5 hrs by Bright-glo luciferase assay

T1 sequence (Q86WV6 whole entry): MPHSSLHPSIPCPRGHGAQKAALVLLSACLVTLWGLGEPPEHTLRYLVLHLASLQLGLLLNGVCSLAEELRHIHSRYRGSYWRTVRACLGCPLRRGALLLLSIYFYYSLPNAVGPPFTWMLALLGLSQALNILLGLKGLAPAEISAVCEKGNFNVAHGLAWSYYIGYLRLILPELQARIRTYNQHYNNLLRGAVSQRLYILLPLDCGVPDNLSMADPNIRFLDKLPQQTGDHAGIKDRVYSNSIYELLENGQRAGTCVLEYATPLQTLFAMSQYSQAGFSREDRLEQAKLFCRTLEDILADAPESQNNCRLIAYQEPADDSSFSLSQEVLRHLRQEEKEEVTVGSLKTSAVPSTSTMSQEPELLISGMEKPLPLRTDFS

Q: With Nc1ncnc2c1ncn2[C@@H]1O[C@@H]2C=CP(=O)(O)O[C@H]3[C@@H](F)[C@H](n4cnc5c(N)ncnc54)O[C@@H]3COP(=O)(O)O[C@H]2[C@H]1F as the molecule, how does the EC50 [1] read?
A: Its EC50 is 0.1 µM.

Q: And the EC50 [2]?
A: Its EC50 is 0.1 µM.
